For assay [1], the system named is Total count Aerobic bacteria. Kind of assay: Total aerobic count on seeds, grains and spices sprayed with sanitizing solutions. The class given is cell-based. As to the method: (§1) Seeds were mechanically cleaned and spread in stainless steel containers. Each 100 grams seeds were sprayed with 4 ml total solutions descried above via conventional trigger vaporizer. This solution is equivalent to 40 L disinfecting solution total sprayed on 1-ton seeds. Seeds, grains and spices were selected to represent all families and types of seeds, grains and spices. Another criteria was to select seeds and grains contaminated with a high count of total aerobic bacteria, yeast, mold, E. coli, Salmonella sp. and other pathogenic microorganisms.
(§2) Seeds, grains and spices treated were: • Whole dried pea, • Split pea dried, • Pea fiber, • Vanilla, • Chia, • Sprouted flax and chia, • Flax, • Hemp, and • Black pepper seeds

Another assay relates to Y&M (yeast, mold). Kind of assay: Yeast and mold (Y&M) count on seeds, grains and spices sprayed with sanitizing solutions. The class given is cell-based. As to conditions: for Y&M, n1: replicate n1; for Y&M, n2: replicate n2. As to the method:
as §1, §2

The mark [2] stands for this setting: Whole dried pea, 40 L per 1 ton.
[3] abbreviates: Whole split pea, 40 L per 1 ton.

The record followed here is patent US20160295860A1, “A NOVEL COMPOSITION AND METHOD OF USE TO CONTROL PATHOGENS AND PREVENT DISEASES IN SEEDS” (AGRI-NÉO INC., priority 2013, published 2016).

Turning to `CCO` [2- Alcohol - ethanol, ethanol], the “Conclusion in words on bactericidal efficacy” value (“Conclusion in words” for short) in assay [1] (Black pepper, 40 L per 1 ton) is “not a strong bactericidal agent”; in assay [1] (Hemp, 40 L per 1 ton), “not a strong bactericidal agent”; in assay [1] (Pea fiber, 40 L per 1 ton), “not a strong bactericidal agent”; in assay [1] (Sprouted flax and chia), “bactericidal agent but not very strong”; in assay [1] (Vanilla, 40 L per 1 ton), “not a strong bactericidal agent”; in assay [1] (setting [2]), “not a strong bactericidal agent”. The “Conclusion in words” value in assay [1] (setting [3]) is reported as “not a strong bactericidal agent”. The “Y&M, Av” value is “Y&M not detected” in the assay with Y&M (yeast, mold) (Pea fiber); “Y&M not detected” in the assay with Y&M (yeast, mold) (Whole dried pea); “Y&M not detected” with Y&M (yeast, mold) (Whole split pea). In addition, the “Y&M, n1” value in the assay on Y&M (yeast, mold) (Pea fiber) is recorded as “n1, n2 not detected”; in the assay on Y&M (yeast, mold) (Whole dried pea) it was “n1, n2 not detected”; in the assay with Y&M (yeast, mold) (Whole split pea) it was “n1, n2 not detected”. Moreover, the “Y&M, n2” value in the assay on Y&M (yeast, mold) (Pea fiber) is on record as “n1, n2 not detected”; in the assay on Y&M (yeast, mold) (Whole dried pea), “n1, n2 not detected”; in the assay with Y&M (yeast, mold) (Whole split pea) it was “n1, n2 not detected”.

For `CC(=O)OO` [Peracetic acid], the “Conclusion in words” value in assay [1] (Black pepper, 40 L per 1 ton) was “strong bactericidal agent”; in assay [1] (Hemp, 40 L per 1 ton) it was “strong bactericidal agent”; in assay [1] (Pea fiber, 40 L per 1 ton), “strong bactericidal agent”; in assay [1] (Vanilla, 40 L per 1 ton), “strong bactericidal agent”; in assay [1] (setting [2]), “strong bactericidal agent”; in assay [1] (setting [3]), “strong bactericidal agent”.
